Data: patent US7307097B2, “Chemical compounds” (SmithKline Beechman Corporation, priority 2001, dated 2007)

Target: Recombinant GST-Tie2 (Homo sapiens, UniProt Q02763)
Test: Tie2 fluorescence polarization kinase activity assay (TIE2-FP)
Assay type: biochemical
Settings: 200 μM ATP, activated enzyme; read-out: TIE2-FP pIC50 (converted)
Description: Tie2 Fluorescence Polarization Kinase Activity Assay (TIE2-FP) Activation of Recombinant Tie2 Activation: Recombinant GST-Tie2 is activated by incubating the enzyme in 20 mM Tris-HCl, pH7.5, 12 mM MgCl2, 100 mM NaCl, 20 μM sodium vanidate, 1 mM DTT and 300 μM ATP at room temperature for 2 hours. The activation mixture is then passed through a NAP-25 desalting column (Pharmacia Biotech cat. no. 17-0852-02) to remove the free ATP. The activated enzyme is stored as aliquots at−80° C. in 20mM Tris-HCl, pH7.5 and 100 mM NaCl. Assay Conditions: The final assay conditions are 50 mM HEPES, pH7.5, 5% DMSO (when screening compounds), 200 μM ATP, 5mM MgCl2, 1 mM DTT, 50 μM sodium vanidate, 1 nM activated enzyme, and 200 μM peptide. IC50's of compounds are measured under subsaturating ATP (200 μM) and varing concentrations of activated Tie2 and peptide substrate (RFWKYEFWR-OH; MW 1873 Da, TFA salt). Panvera Anti-phosphotyrosine antibody (Cat#P2840) and PTK Green Tracer (Cat#P2842) are used to detect the phosphorylated peptide. Polarization is measured on a TECAN Polarion in 138-second cycles for 30 minutes at room temperature. IC50's are then determined from the % polarization using normal calculation methods. The IC50 values are converted to pIC50 values, i.e.,−log IC50 in Molar concentration.

Sequence of Recombinant GST-Tie2 (Q02763 23-1124): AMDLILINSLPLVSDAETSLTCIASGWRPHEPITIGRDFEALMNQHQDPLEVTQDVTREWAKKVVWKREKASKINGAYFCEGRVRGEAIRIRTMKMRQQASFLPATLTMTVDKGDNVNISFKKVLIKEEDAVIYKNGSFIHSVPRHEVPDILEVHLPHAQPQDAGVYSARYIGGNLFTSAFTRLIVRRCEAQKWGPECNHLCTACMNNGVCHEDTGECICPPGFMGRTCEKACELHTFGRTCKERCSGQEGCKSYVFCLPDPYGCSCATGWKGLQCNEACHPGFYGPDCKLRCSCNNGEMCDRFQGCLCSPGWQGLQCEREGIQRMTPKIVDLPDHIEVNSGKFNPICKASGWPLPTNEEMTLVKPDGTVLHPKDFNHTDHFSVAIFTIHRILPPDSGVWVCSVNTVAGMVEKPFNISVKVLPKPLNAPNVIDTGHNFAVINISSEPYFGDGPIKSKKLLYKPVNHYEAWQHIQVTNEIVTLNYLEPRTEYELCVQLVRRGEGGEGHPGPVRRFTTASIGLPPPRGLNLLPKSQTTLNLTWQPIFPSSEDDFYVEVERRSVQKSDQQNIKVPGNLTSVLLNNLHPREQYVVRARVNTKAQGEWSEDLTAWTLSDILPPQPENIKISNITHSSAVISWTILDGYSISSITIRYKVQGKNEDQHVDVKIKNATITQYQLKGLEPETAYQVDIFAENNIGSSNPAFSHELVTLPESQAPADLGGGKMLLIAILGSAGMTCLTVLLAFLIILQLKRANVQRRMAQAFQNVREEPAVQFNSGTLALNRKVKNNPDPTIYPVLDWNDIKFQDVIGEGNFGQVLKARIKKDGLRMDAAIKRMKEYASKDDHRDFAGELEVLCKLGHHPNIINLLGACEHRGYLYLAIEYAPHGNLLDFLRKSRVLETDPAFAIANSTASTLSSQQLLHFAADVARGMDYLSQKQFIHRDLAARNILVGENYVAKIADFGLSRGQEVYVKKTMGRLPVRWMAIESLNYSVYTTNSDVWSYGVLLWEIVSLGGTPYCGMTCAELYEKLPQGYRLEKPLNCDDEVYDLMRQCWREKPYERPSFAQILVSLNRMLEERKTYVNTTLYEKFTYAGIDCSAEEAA

IC50	SMILES
< 0.1 µM	Cn1nc(-c2ccc(NC(=O)Nc3cc(C(F)(F)F)ccc3F)cc2)c(C(N)=O)c1N [Example 2, 5-Amino-3-{4-[3-(2-fluoro-5-trifluoromethyl-phenyl)-ureido]-phenyl}-1-methyl-1H-pyrazole-4-carboxylic acid amide]
< 0.1 µM	Cn1nc(-c2ccc(NC(=O)Nc3cc(C(F)(F)F)ccc3Cl)cc2)c(C(N)=O)c1N [Example 3, 5-Amino-3-{4-[3-(2-chloro-5-trifluoromethyl-phenyl)-ureido]-phenyl}-1-methyl-1H-pyrazole-4-carboxylic acid amide]
0.1 to 1 µM	Cn1nc(-c2ccc(NC(=O)Nc3cc(C(F)(F)F)cc(C(F)(F)F)c3)cc2)c(C(N)=O)c1N [Example 4, 5-Amino-3-{4-[3-(bis-3,5-trifluoromethyl-phenyl)-ureido]-phenyl}-1-methyl-1H-pyrazole-4-carboxylic acid amide]
0.1 to 1 µM	Cn1nc(-c2ccc(NC(=O)Nc3ccc4ccccc4c3)cc2)c(C(N)=O)c1N [Example 5, 5-Amino-1-methyl-3-[4-(3-naphthalen-2-yl-ureido)-phenyl]-1H-pyrazole-4-carboxylic acid amide]
1 to 10 µM	Cn1nc(-c2ccc(NC(=O)Nc3cccc(Cl)c3)cc2)c(C(N)=O)c1N [Example 6, 5-Amino-3-{4-[3-(3-chloro-phenyl)-ureido]-phenyl}-1-methyl-1H-pyrazole-4-carboxylic acid amide]
< 0.1 µM	Cn1nc(-c2ccc(NC(=O)Nc3cc(Cl)ccc3Cl)cc2)c(C(N)=O)c1N [Example 7, 5-Amino-3-{4-[3-(2,5-dichloro-phenyl)-ureido]-phenyl}-1-methyl-1H-pyrazole-4-carboxylic acid amide]
1 to 10 µM	Cn1nc(-c2ccc(NC(=O)Nc3cccc4ccccc34)cc2)c(C(N)=O)c1N [Example 8, 5-Amino-1-methyl-3-[4-(3-naphthalen-1-yl-ureido)-phenyl]-1H-pyrazole-4-carboxylic acid amide]
< 0.1 µM	Cn1nc(-c2ccc(NC(=O)Nc3cccc(C(F)(F)F)c3)cc2)c(C(N)=O)c1N [Example 9, 5-Amino-1-methyl-3-{4-[3-(3-trifluoromethyl-phenyl)-ureido]-phenyl}-1H-pyrazole-4-carboxylic acid amide]
0.1 to 1 µM	Cn1nc(-c2ccc(NC(=O)Nc3ccc(-c4ccccc4)cc3)cc2)c(C(N)=O)c1N [Example 10, 5-Amino-3-[4-(3-biphenyl4-yl-ureido)-phenyl]-1-methyl-1H-pyrazole-4-carboxylic acid amide]
> 10 µM	Cn1nc(-c2ccc(NC(=O)Nc3c(F)cccc3F)cc2)c(C(N)=O)c1N [Example 11, 5-Amino-3-{4-[3-(2,6-difluoro-phenyl)-ureido]-phenyl}-1-methyl-1H-pyrazole-4-carboxylic acid amide]
1 to 10 µM	Cn1nc(-c2ccc(NC(=O)Nc3ccc4c(c3)OCO4)cc2)c(C(N)=O)c1N [Example 12, 5-Amino-3-[4-(3-benzo[1,3]dioxol-5-yl-ureido)-phenyl]-1-methyl-1H-pyrazole-4-carboxylic acid amide]
1 to 10 µM	Cc1ccccc1NC(=O)Nc1ccc(-c2nn(C)c(N)c2C(N)=O)cc1 [Example 13, 5-Amino-1-methyl-3-[4-(3-o-tolyl-ureido)-phenyl]-1H-pyrazole-4-carboxylic acid amide]
0.1 to 1 µM	Cc1cccc(NC(=O)Nc2ccc(-c3nn(C)c(N)c3C(N)=O)cc2)c1 [Example 14, 5-Amino-1-methyl-3-[4-(3-m-tolyl-ureido)-phenyl]-1H-pyrazole-4-carboxylic acid amide]
1 to 10 µM	Cn1nc(-c2ccc(NC(=O)Nc3cc(F)ccc3F)cc2)c(C(N)=O)c1N [Example 15, 5-Amino-3-{4-[3-(2,5-difluoro-phenyl)-ureido]-phenyl}-1-methyl-1H-pyrazole-4-carboxylic acid amide]
1 to 10 µM	COc1ccc(NC(=O)Nc2ccc(-c3nn(C)c(N)c3C(N)=O)cc2)c(OC)c1 [Example 16, 5-amino-3-{4-[3-(2,4-dimethoxy-phenyl)-ureido]-phenyl}-1-methyl-1H-pyrazole-4-carboxylic acid amide]
0.1 to 1 µM	Cn1nc(-c2ccc(NC(=O)Nc3ccc(Oc4ccccc4)cc3)cc2)c(C(N)=O)c1N [Example 17, 5-Amino-1-methyl-3-{4-[3-(4phenoxy-phenyl)-ureido]-phenyl}-1H-pyrazole-4-carboxylic acid amide]

IC50	SMILES
< 0.1 µM	CC(C)(C)n1nc(-c2ccc(NC(=O)Nc3cc(C(F)(F)F)ccc3Cl)cc2)c(C(N)=O)c1N [Example 18, 5-Amino-1-tert-butyl-3-{4-[3-(2-chloro-5-trifluoromethyl-phenyl)-ureido]-phenyl}-1H-pyrazole-4-carboxylic acid amide]
< 0.1 µM	CC(C)(C)n1nc(-c2ccc(NC(=O)Nc3cc(C(F)(F)F)cc(C(F)(F)F)c3)cc2)c(C(N)=O)c1N [Example 19, 5-Amino-3-{4-[3-(bis-3,5-trifluoromethyl-phenyl)-ureido]-phenyl}-1-tert-butyl-1H-pyrazole-4-carboxylic acid amide]
0.1 to 1 µM	CC(C)(C)n1nc(-c2ccc(NC(=O)Nc3cccc4ccccc34)cc2)c(C(N)=O)c1N [Example 20, 5-Amino-1-tert-butyl-3-[4-(3-naphthalen-1-yl-ureido)-phenyl]-1H-pyrazole-4-carboxylic acid amide]
< 0.1 µM	CC(C)(C)n1nc(-c2ccc(NC(=O)Nc3cccc(Cl)c3)cc2)c(C(N)=O)c1N [Example 21, 5-Amino-1-tert-butyl-3-{4-[3-(3-chloro-phenyl)-ureido]-phenyl}-1H-pyrazole-4-carboxylic acid amide]
0.1 to 1 µM	CC(C)(C)n1nc(-c2ccc(NC(=O)Nc3cc(Cl)ccc3Cl)cc2)c(C(N)=O)c1N [Example 22, 5-Amino-1-tert-butyl-3-{4-[3-(2,5-dichloro-phenyl)-ureido]-phenyl}-1H-pyrazole-4-carboxylic acid amide]
< 0.1 µM	CC(C)(C)n1nc(-c2ccc(NC(=O)Nc3ccc4ccccc4c3)cc2)c(C(N)=O)c1N [Example 23, 5-Amino-1-tert-butyl-3-[4-(3-naphthalen-2-yl-ureido)-phenyl]-1H-pyrazole-4-carboxylic acid amide]
< 0.1 µM	CC(C)(C)n1nc(-c2ccc(NC(=O)Nc3cccc(C(F)(F)F)c3)cc2)c(C(N)=O)c1N [Example 24, 5-Amino-1-tert-butyl-3-{4-[3-(3-trifluoromethyl-phenyl)-ureido]-phenyl}-1H-pyrazole-4-carboxylic acid amide]
0.1 to 1 µM	CC(C)(C)n1nc(-c2ccc(NC(=O)Nc3ccc(-c4ccccc4)cc3)cc2)c(C(N)=O)c1N [Example 25, 5-Amino-3-[4-(3-biphenyl-4-yl-ureido)-phenyl]-1-tert-butyl-1H-pyrazole-4-carboxylic acid amide]
1 to 10 µM	CC(C)(C)n1nc(-c2ccc(NC(=O)Nc3c(F)cccc3F)cc2)c(C(N)=O)c1N [Example 26, 5-Amino-1-tert-butyl-3-{4-[3-(2,6-difluoro-phenyl)-ureido]-phenyl}-1H-pyrazole-4-carboxylic acid amide]
0.1 to 1 µM	CC(C)(C)n1nc(-c2ccc(NC(=O)Nc3ccc4c(c3)OCO4)cc2)c(C(N)=O)c1N [Example 27, 5-Amino-3-[4-(3-benzo[1,3]dioxol-5-yl-ureido)-phenyl]-1-tert-butyl-1H-pyrazole-4-carboxylic acid amide]
< 0.1 µM	Cc1cccc(NC(=O)Nc2ccc(-c3nn(C(C)(C)C)c(N)c3C(N)=O)cc2)c1 [Example 29, 5-Amino-1-tert-butyl-3-[4-(3-m-tolyl-ureido)-phenyl]-1H-pyrazole-4-carboxylic acid amide]
0.1 to 1 µM	CC(C)(C)n1nc(-c2ccc(NC(=O)Nc3cc(F)ccc3F)cc2)c(C(N)=O)c1N [Example 30, 5-Amino-1-tert-butyl-3-{4-[3-(2,5-difluoro-phenyl)-ureido]-phenyl}-1H-pyrazole-4-carboxylic acid amide]
1 to 10 µM	COc1ccc(NC(=O)Nc2ccc(-c3nn(C(C)(C)C)c(N)c3C(N)=O)cc2)c(OC)c1 [Example 31, 5-Amino-1-tert-butyl-3-{4-[3-(2,4-dimethoxyo-phenyl)-ureido]-phenyl}-1H-pyrazole-4-carboxylic acid amide]
0.1 to 1 µM	CC(C)(C)n1nc(-c2ccc(NC(=O)Nc3ccc(Oc4ccccc4)cc3)cc2)c(C(N)=O)c1N [Example 32, 5-Amino-1-tert-butyl-3-{4-[3-(4-phenoxy-phenyl)-ureido]-phenyl}-1H-pyrazole-4-carboxylic acid amide]
< 0.1 µM	NC(=O)c1c(-c2ccc(NC(=O)Nc3cc(C(F)(F)F)ccc3F)cc2)n[nH]c1N [Example 33, 5-Amino-3-{4-[3-2-(fluoro-5-trifluoromethyl-phenyl)-ureido]-phenyl}-1H-pyrazole-4-carboxylic acid amide]
